PMC6981117, “Redox-coupled proton pumping drives carbon concentration in the photosynthetic complex I” (Nature Communications, 2020)

Target: T1, NDH-1MS (NDH-1_3), photosynthetic complex I; NdhF3 subunit (Thermosynechococcus vestitus, UniProt Q8DKF5)
T1 construct: native complex from T. elongatus thylakoid membranes, C-terminal TwinStrep tag on CupS; NdhV not resolved; with CO2 hydration protein CupA; CO2 uptake protein CupS; NAD(P)H-quinone oxidoreductase chain 4-3; NAD(P)H-quinone oxidoreductase subunit 1; NAD(P)H-quinone oxidoreductase subunit 2; NAD(P)H-quinone oxidoreductase subunit 3; NAD(P)H-quinone oxidoreductase subunit 4L; NAD(P)H-quinone oxidoreductase subunit 6; NAD(P)H-quinone oxidoreductase subunit L; NAD(P)H-quinone oxidoreductase subunit S; NAD(P)H-quinone oxidoreductase subunit H; NAD(P)H-quinone oxidoreductase subunit I; NAD(P)H-quinone oxidoreductase subunit J; NAD(P)H-quinone oxidoreductase subunit K; NAD(P)H-quinone oxidoreductase subunit M; NAD(P)H-quinone oxidoreductase subunit N; NAD(P)H-quinone oxidoreductase subunit O
T1 sequence (Q8DKF5 1-611): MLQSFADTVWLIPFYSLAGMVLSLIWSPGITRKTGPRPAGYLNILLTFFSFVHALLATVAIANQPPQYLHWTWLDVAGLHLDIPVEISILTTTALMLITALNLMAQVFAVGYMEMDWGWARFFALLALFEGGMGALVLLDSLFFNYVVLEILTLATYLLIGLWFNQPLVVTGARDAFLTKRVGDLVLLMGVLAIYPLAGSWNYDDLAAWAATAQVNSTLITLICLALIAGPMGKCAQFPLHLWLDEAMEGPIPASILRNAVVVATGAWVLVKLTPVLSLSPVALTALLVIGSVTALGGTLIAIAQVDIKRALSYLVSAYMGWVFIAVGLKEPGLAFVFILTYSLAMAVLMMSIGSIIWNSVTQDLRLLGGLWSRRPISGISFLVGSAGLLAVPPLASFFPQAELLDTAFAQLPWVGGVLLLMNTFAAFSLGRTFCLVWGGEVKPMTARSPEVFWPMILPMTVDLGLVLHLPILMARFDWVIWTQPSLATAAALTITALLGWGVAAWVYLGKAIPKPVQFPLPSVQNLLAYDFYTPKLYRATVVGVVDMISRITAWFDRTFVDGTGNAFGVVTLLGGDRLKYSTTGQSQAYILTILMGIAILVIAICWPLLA
Experiment: cryo-EM structure, […] Å
Type: binding
Conditions: co-purified; motif with chlorophyll a in NdhF3

Q: For CC1=C(/C=C/C(C)=C/C=C/C(C)=C/C=C/C=C(C)/C=C/C=C(C)/C=C/C2=C(C)CCCC2(C)C)C(C)(C)CCC1 [β-carotene], which “cryo-EM structure, 3.2 Å” value is on record?
A: NdhF3 binds a chlorophyll a/β-carotene motif that connects via His469 of NdhF3
